In patent US11850238B2, “Use of a thienopyridone derivative in the treatment of adrenoleukodystrophy or adrenomyeloneuropathy” (POXEL, priority 2020, dated 2023):

Key:
[1] = tested on: ABCD2; test: Western blot of ABCD2 expression in ALD patient fibroblasts; type: cell-based, human; settings: especially at low concentration (5 μM), FIG. 6
Procedure: The experiments described in Examples 4 and 6 were performed with metformin by the same lab and described by Singh et al. in Journal of Neurochemistry, 2016; 138, 86-100.

[2] = tested on: AMN human patient-derived primary fibroblasts; test: Hexacosanoic acid (VLCFA) level in AMN patient-derived fibroblasts, LC-MS; type: cell-based
Procedure: In order to compare the efficacy of PXL770 and metformin to lower very long chain fatty acids (VLCFA) in vitro, the study focuses on the level assessment of the hexacosanoic acid, which is the most prevalent VLCFA, in healthy control cells and in AMN human patient-derived primary fibroblasts. The cell lines were obtained from Coriell Cell Repositories. Fibroblasts were cultured in DMEM with 15% FBS. The cultures were split in 1:5 ratio. Fibroblasts from healthy patients were used as control. All treatments were in complete media containing fetal bovine serum (FBS, 15%). All cultured cells were maintained at 37° C. in 5% CO2.
VLCFA content was then measured as follows. Samples are adjusted to a final volume of 0.5-1 ml with LC-MS grade water and spiked with 10 ng of Lignoceric acid-d4 as an internal standard. The sample is acidified to pH 3-4 with dilute hydrochloric acid and extracted with isooctane-ethyl acetate (9:1) three times with equal volume. The extract is dried under nitrogen and the residue is reconstituted in methanol-water-ammonium acetate (75:25:10 mM).
Total fatty acids: After preparing the samples with internal standard as described above for free fatty acids, aqueous sodium hydroxide is added to a final concentration of 1 M. The mixture is incubated at 37° C. in dark under nitrogen for 3 h. The samples are then acidified, extracted, and reconstituted as described above.
LC-MS analysis of fatty acids: The reconstituted fatty acid extracts are subjected to HPLC on Targa C8 column (2×10 mm) using methanol-aqueous ammonium acetate (10 mM) solvent mixture. The column is eluted with a gradient of methanol (75 to 90%) over 8 min at a flow rate of 0.25 ml/min. The column eluent is directly introduced to mass analyzer (QTRAP5500) and monitored for fatty acids using published pseudo MRM method. Under these conditions, the VLCFA elute between 5 and 8 min. Each fatty acid is quantitated against the added internal standard.
The study planned different groups of patients. First, the evolution of hexacosanoic acid in fibroblasts is monitored in healthy control cells and in AMN human patient-derived primary fibroblasts; and in a second time a treatment of PXL770 was assigned to AMN human-derived primary fibroblasts in culture at different doses (PXL770: 0.1, 0.5, 1, 2, 3.5 and 5 μM; metformin: 100, 200, 300 and 400 μM) for one week and the level of hexacosanoic acid was measured.
The experiment described in Example 3 was reproduced with various thienopyridone compounds, namely: • PXL770: potassium 2-chloro-3-(5-hydroxytetralin-6-yl)-6-oxo-5-phenyl-7H-thieno[2,3-b]pyridin-4-olate • PXL700: 2-chloro-4-hydroxy-3-indan-5-yl-5-(3-pyridyl)-7H-thieno[2,3-b]pyridin-6-one • PXL702: 2-chloro-4-hydroxy-3-(4-hydroxyindan-5-yl)-5-phenyl-7H-thieno[2,3-b]pyridin-6-one • PXL695: 2-chloro-5-(3-fluorophenyl)-4-hydroxy-3-(4-hydroxyindan-5-yl)-7H-thieno[2,3-b]pyridin-6-one, • each tested at concentrations from 0.1 to 5 μM.
A one-way ANOVA with Dunnett's multiple comparison test was performed to assess the effect of PXL770 on brain's VLCFAs (**** p<0.0001, *** p<0.001). A Kruskal-Wallis test with Dunn's multiple comparison test was performed to assess the effect of PXL770 on plasma's VLCFAs (**** p<0.0001, […]).

[3] = tested on: ALD-KO mouse-mixed glial cells; test: Hexacosanoic acid (VLCFA) level in ALD-KO mouse mixed glial cells; type: cell-based; settings: 25 μM, FIG. 3
Procedure: The inventors carried out a study of the measurement of VLCFA accumulation in AMN mouse-mixed glial cells when they are not undergoing any treatment and when they are treated with PXL770 at different doses.
C57BL6 mouse breeding pairs were purchased from Jackson Laboratory (Bar Harbor, ME) and maintained at the Henry Ford Health System (HFHS) animal facility. All animal procedures were approved by the HFHS Animal Review Committee and all animals received humane care in compliance with the HFHS experimental guidelines and the National Research Council's criteria for humane care (Guide for Care and Use of Laboratory Animals). Mouse with Abcd1 gene knocked-out were raised and used to extract mixed glial cells. Primary astrocyte-enriched cultures were prepared from the whole cortex of 1-day-old C57BL/6 mice. Briefly, the cortex was rapidly dissected in ice-cold calcium/magnesium-free HBSS at pH 7.4 as described previously. The tissue was minced, incubated in HBSS containing trypsin (2 mg/ml) for 20 min, and washed twice in plating medium containing 10% FBS and 10 μg/ml gentamicin and then disrupted by triturating through a Pasteur pipette, after which cells were seeded in 75-cm^2 culture flasks (Falcon, Franklin, NJ). […]
Hexacosanoic acid level in six groups of mixed glial cells was measured. […]

O=c1[nH]c2sc(Cl)c(-c3ccc4c(c3O)CCCC4)c2c([O-])c1-c1ccccc1.[K+] [PXL770, monohydrate potassium salt of 2-chloro-4-hydroxy-3-(5-hydroxytetralin-6-yl)-5-phenyl-7H-thieno[2,3-b]pyridin-6-one]
expression of ABCD2 (Western blot) [1]: overexpression | potency and efficacy compared to metformin ([2]; AMN fibroblasts, PXL770 0.1-5 μM vs metformin 100-400 μM, one week, FIG. 10): much higher potency and efficacy | level of hexacosanoic acid ([2]; AMN fibroblasts, increasing doses 0.1-5 μM, one week, FIG. 10): decreases | VLCFA levels ([2]; AMN patient-derived fibroblasts, concentrations from 0.1 to 5 μM, FIG. 14): comparable decrease | accumulation of hexacosanoic acid [3]: decreases
